The text below walks through data of ChEMBL document CHEMBL3734669, “Δ(5)-Cholenoyl-amino acids as selective and orally available antagonists of the Eph-ephrin system” (Eur J Med Chem, 2015).

The target in one data set is Ephrin type-A receptor 5 (Homo sapiens, UniProt P54756). Put plainly: Displacement of biotinylated ephrin-A1-Fc from EphA5 (unknown origin) preincubated for 1 hr followed by biotinylated-ephrin-A1-Fc addition measured after 4 hrs by ELISA. In general terms: In an ELISA, binding on a coated surface is turned into a signal by an enzyme label.
The target in data set [1] is T1, Ephrin type-B receptor 1 (Homo sapiens) (UniProt P54762).
T1 sequence (whole entry): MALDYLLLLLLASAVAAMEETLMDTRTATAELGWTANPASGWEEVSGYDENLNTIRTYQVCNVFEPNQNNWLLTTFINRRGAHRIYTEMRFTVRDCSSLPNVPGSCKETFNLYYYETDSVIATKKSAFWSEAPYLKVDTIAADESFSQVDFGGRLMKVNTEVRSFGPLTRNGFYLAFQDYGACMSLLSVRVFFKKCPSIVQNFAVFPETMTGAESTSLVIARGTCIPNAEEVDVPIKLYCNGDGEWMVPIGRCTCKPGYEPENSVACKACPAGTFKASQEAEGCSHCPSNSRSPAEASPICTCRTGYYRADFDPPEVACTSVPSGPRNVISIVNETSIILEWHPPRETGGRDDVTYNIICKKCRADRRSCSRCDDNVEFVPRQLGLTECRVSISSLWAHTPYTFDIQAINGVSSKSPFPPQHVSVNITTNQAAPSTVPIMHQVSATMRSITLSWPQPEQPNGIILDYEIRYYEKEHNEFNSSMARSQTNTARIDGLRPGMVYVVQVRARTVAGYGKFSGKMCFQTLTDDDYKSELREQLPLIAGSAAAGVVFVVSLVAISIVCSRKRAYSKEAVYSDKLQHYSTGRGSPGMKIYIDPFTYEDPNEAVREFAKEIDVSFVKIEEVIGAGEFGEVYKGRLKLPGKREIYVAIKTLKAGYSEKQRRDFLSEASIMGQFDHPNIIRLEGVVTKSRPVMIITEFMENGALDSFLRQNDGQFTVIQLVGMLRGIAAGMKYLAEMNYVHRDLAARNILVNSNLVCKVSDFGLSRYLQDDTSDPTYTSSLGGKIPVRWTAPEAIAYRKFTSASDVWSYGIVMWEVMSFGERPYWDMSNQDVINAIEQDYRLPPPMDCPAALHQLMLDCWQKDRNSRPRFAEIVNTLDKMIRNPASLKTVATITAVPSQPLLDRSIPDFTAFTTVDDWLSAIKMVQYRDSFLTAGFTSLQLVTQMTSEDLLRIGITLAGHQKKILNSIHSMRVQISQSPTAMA
Put plainly: (§1) Displacement of biotinylated ephrin-B1-Fc from EphB1 (unknown origin) preincubated for 1 hr followed by biotinylated-ephrin-B1-Fc addition measured after 4 hrs by ELISA.

Another data set concerns the target T2, Ephrin type-B receptor 1 (Homo sapiens, UniProt P54762).
T2 sequence (P54762 whole entry): T1 sequence (whole entry)
Described as §1.

Data set [2] deals with T3, Nuclear receptor subfamily 1 group I member 2 (Homo sapiens, UniProt O75469).
T3 sequence (O75469 whole entry): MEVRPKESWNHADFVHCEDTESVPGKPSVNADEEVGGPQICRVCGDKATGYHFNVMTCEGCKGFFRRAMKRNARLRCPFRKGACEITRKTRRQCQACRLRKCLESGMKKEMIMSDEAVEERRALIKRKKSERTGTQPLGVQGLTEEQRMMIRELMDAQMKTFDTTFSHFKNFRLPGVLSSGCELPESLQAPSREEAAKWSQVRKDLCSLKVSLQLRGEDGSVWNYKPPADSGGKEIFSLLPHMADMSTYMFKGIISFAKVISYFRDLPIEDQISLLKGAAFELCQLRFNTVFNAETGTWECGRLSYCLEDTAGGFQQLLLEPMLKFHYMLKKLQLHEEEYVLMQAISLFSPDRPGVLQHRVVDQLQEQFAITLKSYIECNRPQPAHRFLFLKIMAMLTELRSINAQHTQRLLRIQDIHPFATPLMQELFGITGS
The data set can be described thus: Activation of human recombinant PXR up to 10 uM by alphascreen method. (In general: In Alpha technology, singlet oxygen from a donor bead excites a nearby acceptor bead.)

The nature of data set [3]: AUC (0 to t) in mouse at 30 mg/kg, po administered as single dose by HPLC-MS analysis. In kind it is ADME, organism-based. The note with it: in vivo.
A short description of data set [4]: Metabolic stability in mouse plasma assessed as compound remaining at 1 uM after 24 hrs by HPLC-ESI-MS/MS analysis. The note with it: read-out: Stability. It counts as ADME, cell-free.
Data set [5] is described as follows: Metabolic stability in mouse liver S9 fractions assessed as compound remaining at 1 uM after 1 hr by HPLC-ESI-MS/MS analysis in presence of NADPH regenerating system. The note with it: read-out: Stability. In kind it is ADME, subcellular, Liver S9 fraction.
A short description of data set [6]: Cytotoxicity against human PC3 cells at 10 to 30 uM after 2 hrs by LDH release assay. The following applies: pc-3, 2 h. It counts as cell-based.
Data set [7] in a line: Tmax in mouse at 30 mg/kg, po administered as single dose by HPLC-MS analysis. It counts as ADME, organism-based. The note with it: in vivo.

Chain of Ephrin type-A receptor 5 (P54756 whole entry): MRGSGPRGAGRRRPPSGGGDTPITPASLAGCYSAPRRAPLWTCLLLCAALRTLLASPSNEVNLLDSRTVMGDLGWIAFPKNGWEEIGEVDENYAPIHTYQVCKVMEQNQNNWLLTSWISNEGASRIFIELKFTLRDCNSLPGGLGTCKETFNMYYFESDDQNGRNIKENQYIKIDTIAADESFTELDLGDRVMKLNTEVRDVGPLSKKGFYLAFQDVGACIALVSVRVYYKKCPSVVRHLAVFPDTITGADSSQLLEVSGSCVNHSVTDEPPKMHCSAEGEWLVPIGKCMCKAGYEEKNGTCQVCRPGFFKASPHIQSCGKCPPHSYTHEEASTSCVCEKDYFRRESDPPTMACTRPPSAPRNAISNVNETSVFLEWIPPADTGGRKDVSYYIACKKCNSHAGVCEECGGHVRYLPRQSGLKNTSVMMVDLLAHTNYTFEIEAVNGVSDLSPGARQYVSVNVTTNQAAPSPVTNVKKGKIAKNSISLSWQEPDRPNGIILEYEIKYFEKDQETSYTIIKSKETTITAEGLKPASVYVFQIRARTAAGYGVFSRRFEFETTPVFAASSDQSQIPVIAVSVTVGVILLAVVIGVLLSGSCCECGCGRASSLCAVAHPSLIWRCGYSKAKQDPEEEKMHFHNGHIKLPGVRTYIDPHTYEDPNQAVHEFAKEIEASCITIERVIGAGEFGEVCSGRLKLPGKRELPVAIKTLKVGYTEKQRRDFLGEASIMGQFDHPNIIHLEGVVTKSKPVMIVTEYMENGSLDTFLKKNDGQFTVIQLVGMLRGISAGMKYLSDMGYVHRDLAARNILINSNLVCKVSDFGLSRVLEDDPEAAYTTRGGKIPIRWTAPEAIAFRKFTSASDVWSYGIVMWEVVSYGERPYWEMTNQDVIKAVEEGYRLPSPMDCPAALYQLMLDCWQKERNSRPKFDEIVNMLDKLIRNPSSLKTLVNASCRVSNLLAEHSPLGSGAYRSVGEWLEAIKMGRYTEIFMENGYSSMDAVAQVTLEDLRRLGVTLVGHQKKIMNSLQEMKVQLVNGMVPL

By IC50 is commonly meant the concentration that gives 50% inhibition. Usually AUC(0-t) stands for the area under the concentration-time curve up to a stated or last time point. A higher AUC(0-t) goes with more exposure. In general, Tmax refers to the time at which the peak concentration occurs. As to `C[C@H](CCC(=O)N[C@@H](Cc1c[nH]c2ccccc12)C(=O)O)[C@H]1CC[C@H]2[C@@H]3CC=C4C[C@@H](O)CC[C@]4(C)[C@H]3CC[C@]12C`, the results for the IC50 on Ephrin type-A receptor 5 and at Ephrin type-B receptor 1 were 2600 nM and 2500 nM, respectively. The inhibition result (at Ephrin type-A receptor 5; in data set [1]) was “Dose-dependent effect” in each case. The Activity entry is reported as “Not Active” in data set [2] and “Non-toxic” in data set [6]. The AUC(0-t) in data set [3] is 573 ng·h/mL. Also, in data set [4], the remaining at 24 h, 1 µM came to 95.8%. Moreover, the remaining at 1 h, 1 µM in data set [5] was found to be 70%. The Tmax in data set [7] is 30 min.
